Assay results published in patent US20240287136A1, “PHARMACEUTICAL COMPOSITION AND THE USE THEREOF IN THE TREATMENT OF AUTOIMMUNE DISEASES” (Singapore Health Services Pte. Ltd., priority 2016, published 2024).
Ends that are not written are not given here.

Tests used:
[1] = system: regulatory T cell (Treg) (CD4+CD25++CD127−); experiment: Treg frequency in PBMC of trial patients by FACS; format: in vivo, human
Method: (§1) FIG. 3. Effector and regulatory T cell function differ according to clinical response: a. effector T cells (Teff) (CD4+CD127+) at beginning of the trial (TO) and end of the study (Tend) were compared for PD-1 expression in both SEQ ID NO. 1 clinical responders and placebo clinical non-responders by FACS. b. FACS-sorted Teffwere analyzed for IL-17 and for RORC. Teff were stained intracellularly with IL-17A, and analyzed by FACS. c. regulatory T cell (Treg) (CD4+CD25++CD127−) frequency (% of PBMC) was determined in SEQ ID NO. 1—treated clinical responders by FACS. […] Values are the mean and s.e.m. d. Treg functionality in SEQ ID NO. […] (placebo clinical non-responders vs SEQ ID NO. 1 clinical responders, —76.21+/−3.665 vs 8.443+/−4.677, n=2 vs 3, t-test p0.0010). Values are the mean and s.e.m.
It is not detected in clinical responders a change in frequency of CD4+/CD25++/CD127-Treg between beginning and end of the trial (FIG. 3c). A highly significant difference between treatment responders and placebo non-responders was found in the suppressive ability of Treg at the end of the trial (FIG. 3d). This difference indicates a restoration of Treg functionality in clinical responders to treatment with SEQ ID NO. 1 (FIG. 3d and Sa).
Successful treatment with SEQ ID NO: 1 therefore induced an immune deviation of Teff cells by reducing their ability to produce pro-inflammatory cytokines. […]

[2] = system: latent TGFβ binding protein 4 (LTBP-4) gene; experiment: Gene array analysis of PBMCs of trial patients; format: in vivo, human; settings: SEQ ID NO: 1 responders (FIG. 14A)
[3] = system: regulatory T cell (Treg) (CD4+CD25++CD127−); experiment: Treg functionality: suppression of Teff proliferation (CFSE dilution); format: in vivo, human; settings: SEQ ID NO. 1 clinical responders at Tend, n=3; mean and s.e.m.; placebo clinical non-responders —76.21+/−3.665
Method: as §1, with “p0.0010). […]” for “p0.0010). Values are the mean and s.e.m.”
FIG. 5. […] Treg ability to suppress Teff proliferation was determined by CFSE dilution. […] T(x)=Probability binning. % PD-1+Treg is expressed as percentage of the total Treg population (insets in both panels). d. […] The average pSTAT5 expression per cell for anti-PD-1 treatment, as determined by the average integral density per unit area, was calculated using ImageJ (Rasband, W. S., ImageJ, http://rsb.info.nih.gov/ij/, 1997-2009). […] Total Treg, PD-1+Treg and PD-1− Treg from clinical responders (n=S) at Tend were sorted and RNA expression of CTLA-4, FoxP3, IL-10 and TGF-β was measured by TaqMan. Data are expressed as 2(−dCT)×100 of GAPDH. […]

[4] = format: in vitro ADME; settings: without a linker; data not shown
Source text: This is synthetically of less interest to a person skilled in the art since it usually involves multiple-step synthesis for making the peptide. In the presence of the linker, the peptide SEQ ID No: 1 and the antirheumatic drug can be administered in equal proportion because the linker protects the peptide from degradation and thus enhance the stability of the peptide.

[5] = system: CD4+FoxP3+Tregs and CD4+CD45RO+memory T cells; experiment: Cluster analysis and manual gating of Treg and memory T cell compartments of trial patients; format: in vivo, human
Source text: Cluster analysis of the immune profiles of healthy individuals and rheumatoid arthritis patients reveal profound perturbations in the various immune cell compartments (FIG. 8). Immune tolerization achieved with SEQ ID NO: 1 treatment reshapes the immunomes of rheumatoid patients (FIG. 8B). The underlying immunological mechanisms behind immune tolerization was investigated by utilising staining panels for surface and activation markers on T cells (FIG. 13).
Immune phenotypes enriched in this cell subset of SEQ ID NO: 1 responders were memory T cells displaying activation and tolerogenic characteristics (FIG. 11B).

[6] = system: effector T cells (Teff) (CD4+CD127+); experiment: Gene expression in FACS-sorted Teff of trial patients (TaqMan); format: in vivo, human
Method: as §1
(§2) In FIG. 3b Y axis: % net change between Tend and T0 for both Teff producing IL-17A (first two columns, measured by FACS) and RORC expression (measured by TaqMan). […] Results were analyzed as a percentage of GAPDH. […] Values are the mean and s.e.m.
Successful treatment with SEQ ID NO: 1 therefore induced an immune deviation of Teff cells by reducing their ability to produce pro-inflammatory cytokines. An increase in the number of Treg cells could be one possible explanation for this observation.

[7] = system: Treg (CD4+CD25++CD127−) cells; experiment: PD-1 expression on Treg by FACS after incubation with SEQ ID NO. 1; format: cell-based, human; settings: after incubation with 10 mg/ml of SEQ ID NO. 1
Method: FIG. 5. PD-1 actively contributes to Treg function: a. Treg ability to suppress Teff proliferation was determined by CFSE dilution. A representative clinical responder is depicted. Treg cells were sorted by FACS according to the phenotype depicted in the table and incubated with Teff in the presence of 10 mg/ml of SEQ ID NO. 1. b. […] 1. c. […] 1. Line with white area under the curve depicts T0, grey area depicts Tend. T(x)=Probability binning. % PD-1+Treg is expressed as percentage of the total Treg population (insets in both panels). d. […] PD-1+Treg cells were stained by FACS after a 5-day incubation with Teff and APC in the presence or absence of anti-PD1 antibody. Details in methods. Line with white area under the curve depicts anti-PD1 treated, grey area depicts untreated. T(x)=Probability binning. e. pSTAT5 was examined in Treg via immunofluorescent microscopy. Cells, staining and slides were prepared according to procedures outlined in the methods. The average pSTAT5 expression per cell for anti-PD-1 treatment, as determined by the average integral density per unit area, was calculated using ImageJ (Rasband, W. S., ImageJ, http://rsb.info.nih.gov/ij/, 1997-2009). Untreated vs. anti-PD-1 treated: 38.79 vs. 33.07, standard deviation 4.27 vs. […], t-test p<0.0001. f. […] Teff were stained by FACS after a 5-day incubation in the presence or absence of anti-PD1 antibody. Details in methods. Line with white area under the curve depicts anti-PD1 treated, grey area depicts untreated. T(x)=Probability binning. g. Total Treg, PD-1+Treg and PD-1− Treg from clinical responders (n=S) at Tend were sorted and RNA expression of CTLA-4, FoxP3, IL-10 and TGF-β was measured by TaqMan. Data are expressed as 2(−dCT)×100 of GAPDH. […] 1 clinical responders (18.99+/−3.412 vs 2.693+/−1.434, n=S p=0.0130).

[8] = system: effector T cells (Teff) (CD4+CD127+); experiment: FACS of effector T cells of trial patients (PD-1, intracellular IL-17A, IL-23 receptor); format: in vivo, human
Method: as §1
Therefore, a first hypothesis to test here is whether CD4+/CD127+T effector (Teff) cell anergy was induced by treatment with SEQ ID NO. 1. […] In addition, Teff were able to proliferate to conventional polyclonal stimuli (data not shown).
Further analysis of Teff in SEQ ID NO. […] Conversely, an increased expression in IL-17A expression was detected in placebo—treated clinical non-responders. […] 1 induced an immune deviation of Teff with a reduction in the ability to produce pro-inflammatory cytokines.
as §2

[9] = responders, end of the treatment regime (FIG. 9A)

QKRAAYDQYGHAAFE-NH2 [SEQ ID NO. 1]
change of frequency of Tregs between beginning and end of the trial ([1]; FIG. 9B): did not change
Treg frequency in PBMC ([1]; clinical responders, Tend, T0 7.773+/−1.432, n=4, mean and s.e.m.): 7.610+/−1.519 % of PBMC
expression of latent TGFβ binding protein 4 (LTBP-4) gene in PBMCs [2]: marginal upregulation
Treg functionality, % suppression of Teff proliferation [3]: 8.443+/−4.677 % suppression
stability of the peptide upon ingestion [4]: prone to degradation upon ingestion
percentage of CD4+FoxP3+Tregs expressing GITR, PD-1 and HLA-DR ([5]; SEQ ID NO: 1 responders versus placebo non-responders (FIG. 8E)): higher percentage
proportion of CD4+CD45RO+memory T cells activated and regulatory (CD69 and TGFβ expression) ([5]; SEQ ID NO: 1 responders versus placebo non-responders (FIG. 11C)): larger proportion
RORC gene expression in Teff ([6]; clinical responders, Tend, T0 3.382+/−0.684, mean and s.e.m.): 1.670+/−0.714 percentage of GAPDH
IFNγ expression in CD4+Teff cells [6, 9]: significantly lower levels
IL-17A expression in CD4+Teff cells [6, 9]: significantly lower levels
PD-1+ Treg as percentage of total Treg ([7]; clinical responder, T0): 13.3%
PD-1+ Treg as percentage of total Treg ([7]; clinical responder, Tend): 41%
PD-1+ Treg as percentage of total Treg ([7]; representative clinical non-responder, T0): 15.5%
PD-1+ Treg as percentage of total Treg ([7]; representative clinical non-responder, Tend): 12.7%
IL-23 receptor expression in Teff ([8]; SEQ ID NO. 1-treated clinical responders, not shown): decrease
Intracellular IL-17A expression in Teff cells ([8]; clinical responders, Tend, T0 8.003+/−0.07839%, n=3, mean and s.e.m.): 4.873+/−0.6933%
% of PD-1+ in the total Teff population ([8]; clinical responders, end of trial (Tend), T0 6.312+/−1.428, n=5, mean+/−s.e.m.): 4.930+/−1.433%
